Structures can show the parent of a compound that is named as a salt. Blank lines part the entries; values can stand above or below the compound they belong to.
Tests used:
[1] = Competitive stability study (slurry of Forms I-VI, XRPD); format: physicochemical; details: 2 days, room temperature
Protocol: To evaluate the transformation of Compound 1 phosphate solid forms, competitive slurry experiments were performed as follows: to a saturated solution (1.5 mL) of Compound 1 phosphate Form I in the solvent as listed in Table 14 was added Form I (6 mg), followed by stirring to give a cloudy solution, then 6 mg each of Form II through Form VI were added to the mixture. The slurry was stirred for 2 days at room temperature and analyzed by XRPD.

Pim-1 = biological target: T1, Pim-1 (Homo sapiens, UniProt P11309); assay: Pim-1 kinase assay; format: biochemical; details: 1 mM ATP; read-out: IC50 PIM1 Enzyme (Ex. A)
T1 construct: purchased Invitrogen PV3503
T1 sequence (P11309 whole entry): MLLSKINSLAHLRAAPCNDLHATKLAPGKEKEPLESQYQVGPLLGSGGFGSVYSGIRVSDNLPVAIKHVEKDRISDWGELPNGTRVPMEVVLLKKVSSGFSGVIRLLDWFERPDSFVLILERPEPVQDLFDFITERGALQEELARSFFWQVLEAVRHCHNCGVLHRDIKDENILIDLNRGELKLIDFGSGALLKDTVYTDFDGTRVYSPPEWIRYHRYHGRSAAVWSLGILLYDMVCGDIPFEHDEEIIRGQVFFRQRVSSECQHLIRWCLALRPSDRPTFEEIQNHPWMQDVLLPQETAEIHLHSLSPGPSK
Protocol: Pim-1 and Pim-3 kinase assays—20 μL reactions can be run in white 384 well polystyrene plates dotted with 0.8 μL compound/DMSO in the assay buffer (50 mM Tris, pH 7.5, 0.01% Tween-20, 5 mM MgCl2, 0.01% BSA, 5 mM DTT), containing 0.05 μM Biotin-labeled BAD peptide substrate (AnaSpec 62269), 1 mM ATP, and 2.5 pM (Pim-1, Invitrogen PV3503) or 1.25 pM (Pim-3, Millipore 14-738) enzyme for 1 h at 25° C. Reactions are stopped by addition of 10 μL STOP Buffer (150 mM Tris, pH=7.5, 150 mM NaCl, 75 mM EDTA, 0.01% Tween-20, 0.3% BSA) supplemented with Phospho-Bad (Ser112) Antibody (Cell Signaling 9291) diluted 666-fold, and Streptavidin donor beads (PerkinElmer 6760002) along with Protein-A acceptor beads (PerkinElmer 6760137) at 15 μg/mL each. Supplementation of the STOP buffer with beads and stopping the reactions are done under reduced light. Prior to the stopping reactions STOP buffer with beads is pre-incubated for 1 h in the dark at room temperature. After stopping the reactions, plates are incubated for 1 h in the dark at room temperature before reading on a PHERAstar FS plate reader (BMG Labtech) under reduced light.

Pim-2 = biological target: T2, Pim-2 (Homo sapiens, UniProt Q9P1W9); assay: Pim-2 kinase assay; format: biochemical; details: 1 mM ATP; read-out: IC50 PIM2 Enzyme (Ex. A)
T2 construct: purchased Invitrogen PV3649
T2 sequence (Q9P1W9 whole entry): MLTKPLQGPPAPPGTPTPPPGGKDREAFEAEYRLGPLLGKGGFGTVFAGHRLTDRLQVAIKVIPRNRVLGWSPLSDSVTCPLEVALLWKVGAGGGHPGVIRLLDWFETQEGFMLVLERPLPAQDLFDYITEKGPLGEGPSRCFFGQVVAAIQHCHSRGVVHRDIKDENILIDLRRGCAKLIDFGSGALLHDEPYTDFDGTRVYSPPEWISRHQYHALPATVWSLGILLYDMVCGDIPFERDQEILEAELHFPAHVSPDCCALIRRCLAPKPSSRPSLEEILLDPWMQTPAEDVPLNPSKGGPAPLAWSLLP
Protocol: Pim-2 kinase assay—20 μL reactions are run in white 384 well polystyrene plates dotted with 0.8 μL compound/DMSO in the assay buffer (50 mM Tris, pH 7.5, 0.01% Tween-20, 5 mM MgCl2, 0.01% BSA, 5 mM DTT), containing 0.05 μM Fluorescein-labeled CREBtide peptide substrate (Invitrogen PV3508), 1 mM ATP, and 1 nM enzyme (Invitrogen PV3649) for 2 h at 25° C. Reactions are stopped by addition of 10 μL TR-FRET Dilution Buffer (Invitrogen PV3574) with 30 mM EDTA and 1.5 nM LanthaScreen Tb-CREB pSer133 antibody (Invitrogen PV3566). After 30 min. incubation at room temperature, plates are read on a PHERAstar FS plate reader (BMG Labtech).

pBAD in KMS12BM cells [2] = assay: pBAD signaling assay in human whole blood, KMS12BM cells; format: cell-based; details: KMS-12-BM, read-out: IC50 pBAD whole blood (Ex. B, KMS12BM cells)
pBAD in MOLM-16 cell = assay: pBAD signaling assay in human whole blood, MOLM16 cells; format: cell-based; details: read-out: IC50 pBAD whole blood (Ex. B, MOLM16 cells)
pBAD in KMS12BM cells [3] = assay: Pim pBAD signaling assay in KMS12BM cells; format: cell-based; details: Homo sapiens, KMS-12-BM, 2.5 hours, read-out: IC50 pBAD KMS12BM cells (Ex. B)
MOLM16 cells = assay: Pim cell proliferation assay ([3H]-thymidine), MOLM16; format: cell-based; details: read-out: IC50 Tumor cell proliferation (Ex. B, MOLM16 cells)
Protocol: (§1) KM[…] and MOLM16 cells were purchased from DSMZ (Germany) and were maintained according to the recommendations of suppliers. To measure the anti-proliferation activities of test compounds, the cells were plated in their respective culture medium (2×10^3 cells/200 μL/well) into 96-well ultralow binding plates (Corning), with or without test compound(s). After 3 to 4 days, [3H]-thymidine (1 μCi/well) (PerkinElmer) in PBS (10 μL) was then added to the cell culture for an additional 12 hours before the incorporated radioactivity was separated by filtration with water through GF/B filters (Packard Bioscience) and measured by liquid scintillation counting with a TopCount (Packard Bioscience).

KMS12BM cells = assay: Pim cell proliferation assay ([3H]-thymidine), KMS12BM; format: cell-based; details: Homo sapiens, KMS-12-BM; read-out: IC50 Tumor cell proliferation (Ex. B, KMS12BM cells)
Protocol: as §1

Pim-3 = Pim-3 (Homo sapiens, UniProt Q86V86); assay: Pim-3 kinase assay; format: biochemical; details: 1 mM ATP; read-out: IC50 PIM3 Enzyme (Ex. A)
[4] = Stability study under phase equilibration conditions (XRPD); format: physicochemical; details: 2-3 days, all solvents and solvent mixtures tested
Protocol: Phase equilibration studies were designed to provide information on a predominant crystal form for phase identification. Compound 1 phosphoric acid salt (Form I) was equilibrated in a representative group of solvents at 25±1° C. (chloroform, DMF, 1,4-dioxane, methanol and methanol/20% water, 2-methoxyethanol and 2-methoxyethanol/20% water, MIBK, THF and THF/20% water, acetone, n-BuOH and n-BuOH/20% water, EtOH and EtOH/20% water, isobutyl acetate, 1-propanol and 1-propanol/20% water, isopropanol, water, and MEK) and 50±1° C. (chloroform, DMF, 1,4-dioxane, methanol and methanol/20% water, 2-methoxyethanol and 2-methoxyethanol/20% water, MIBK, THF and THF/20% water, acetone, n-BuOH and n-BuOH/20% water, EtOH and EtOH/20% water, EtOAc, ethyl formate, 1-propanol and 1-propanol/20% water, isopropanol, IPA/MeOH/Water (1.73/0.79/0.08), IPA/water (3/2), water) controlled by IKA® ETS-D5 temperature controller and IKA® RCT basic safety control.
To 3 mL of a solvent or a mixture of solvents (chosen from a list for the respective temperature) was added Compound 1 phosphate (Form I) until a cloudy solution was obtained, then, about 30 mg of Compound 1 phosphate (Form I) was added to the cloudy solution. The mixture was stirred at 25±1° C. or 50±1° C., respectively, for 2-3 days. The solid was filtered and analyzed by XRPD. […]

[5] = Stability study of Form I under environmental conditions (XRPD); format: physicochemical
Source text: Compound 1 phosphoric acid salt Form I was subjected to various different environmental conditions to assess stability.

PIM kinase = assay: Pim enzyme assays (isoform not given); format: biochemical; details: 1 mM ATP; Pim isoform not stated

- Solid state form ([1]; IPA/MeOH/water/DMSO (56.6/28.3/3.0/12.1)): Form I
- Solid state form ([1]; IPA/MeOH/water/DMSO (61.8/28.2/2.9/7.1)): Form I
Compound: C[C@H]1CN(c2c(NC(=O)c3ccc(F)c(-c4c(F)cccc4F)n3)cnc3c2CC[C@H]3O)C[C@@H](N)[C@@H]1O [Compound 1 H3PO4 salt, N-{(7R)-4-[(3R,4R,5S)-3-amino-4-hydroxy-5-methylpiperidin-1-yl]-7-hydroxy-6,7-dihydro-5H-cyclopenta[b]pyridin-3-yl}-6-(2,6-difluorophenyl)-5-fluoropyridine-2-carboxamide phosphoric acid salt]

- IC50 (Pim-1): < 35 nM
- IC50 (Pim-2): < 35 nM
- IC50 (pBAD in KMS12BM cells [2]): < 200 nM
- IC50 (pBAD in MOLM-16 cell): < 100 nM
- IC50 (pBAD in KMS12BM cells [3]): < 35 nM
- IC50 (MOLM16 cells): < 35 nM
- IC50 (Pim-3): < 35 nM
Compound: C[C@H]1CN(c2c(NC(=O)c3ccc(F)c(-c4c(F)cccc4F)n3)cnc3c2CC[C@H]3O)C[C@@H](N)[C@@H]1O [Compound 1 di-HCl salt, N-{(7R)-4-[(3R,4R,5S)-3-amino-4-hydroxy-5-methylpiperidin-1-yl]-7-hydroxy-6,7-dihydro-5H-cyclopenta[b]pyridin-3-yl}-6-(2,6-difluorophenyl)-5-fluoropyridine-2-carboxamide dihydrochloride]
- IC50 (KMS12BM cells): < 100 nM

- Solid form after phase equilibration (XRPD) ([4]; 25±1° C.): Form I
- Solid form after phase equilibration (XRPD) ([4]; 50±1° C.): Form I
- Crystalline Form (XRPD) ([5]; 40° C./75% RH for 1 week): Form I
- Crystalline Form (XRPD) ([5]; 50° C. vacuum dry for 1 day): Form I
- Crystalline Form (XRPD) ([5]; 100° C. vacuum dry for 1 day): Form I
- Crystalline Form (XRPD) ([5]; 210° C. vacuum dry followed by 40° C./75% RH for 4 weeks): Form I
- Crystalline Form (XRPD) ([5]; 210° C. vacuum dry for 20 min): Not Form I
- Crystalline Form (XRPD) ([5]; Suspension in 0.5% methyl cellulose in water): Form I
Compound: C[C@H]1CN(c2c(NC(=O)c3ccc(F)c(-c4c(F)cccc4F)n3)cnc3c2CC[C@H]3O)C[C@@H](N)[C@@H]1O [Compound 1 phosphoric acid salt Form I, N-{(7R)-4-[(3R,4R,5S)-3-amino-4-hydroxy-5-methylpiperidin-1-yl]-7-hydroxy-6,7-dihydro-5H-cyclopenta[b]pyridin-3-yl}-6-(2,6-difluorophenyl)-5-fluoropyridine-2-carboxamide phosphoric acid salt]

- IC50 (PIM kinase): < 100 nM
Compound: C[C@H]1CN(c2c(NC(=O)c3ccc(F)c(-c4c(F)cccc4F)n3)cnc3c2CC[C@H]3O)C[C@@H](N)[C@@H]1O [Compound 1, N-{(7R)-4-[(3R,4R,5S)-3-amino-4-hydroxy-5-methylpiperidin-1-yl]-7-hydroxy-6,7-dihydro-5H-cyclopenta[b]pyridin-3-yl}-6-(2,6-difluorophenyl)-5-fluoropyridine-2-carboxamide]

Source: patent US12043614B2, “Salts of a Pim kinase inhibitor” (Incyte Corporation, priority 2015, dated 2024)
